pIC50: −log10 of the molar value.

The target of this assay is T1, full-length human Mineralocorticoid Receptor (MR) (Homo sapiens, UniProt P08235).
T1 construct: host or cells: PathHunter CHO-K1 cells
T1 sequence (P08235 1-984): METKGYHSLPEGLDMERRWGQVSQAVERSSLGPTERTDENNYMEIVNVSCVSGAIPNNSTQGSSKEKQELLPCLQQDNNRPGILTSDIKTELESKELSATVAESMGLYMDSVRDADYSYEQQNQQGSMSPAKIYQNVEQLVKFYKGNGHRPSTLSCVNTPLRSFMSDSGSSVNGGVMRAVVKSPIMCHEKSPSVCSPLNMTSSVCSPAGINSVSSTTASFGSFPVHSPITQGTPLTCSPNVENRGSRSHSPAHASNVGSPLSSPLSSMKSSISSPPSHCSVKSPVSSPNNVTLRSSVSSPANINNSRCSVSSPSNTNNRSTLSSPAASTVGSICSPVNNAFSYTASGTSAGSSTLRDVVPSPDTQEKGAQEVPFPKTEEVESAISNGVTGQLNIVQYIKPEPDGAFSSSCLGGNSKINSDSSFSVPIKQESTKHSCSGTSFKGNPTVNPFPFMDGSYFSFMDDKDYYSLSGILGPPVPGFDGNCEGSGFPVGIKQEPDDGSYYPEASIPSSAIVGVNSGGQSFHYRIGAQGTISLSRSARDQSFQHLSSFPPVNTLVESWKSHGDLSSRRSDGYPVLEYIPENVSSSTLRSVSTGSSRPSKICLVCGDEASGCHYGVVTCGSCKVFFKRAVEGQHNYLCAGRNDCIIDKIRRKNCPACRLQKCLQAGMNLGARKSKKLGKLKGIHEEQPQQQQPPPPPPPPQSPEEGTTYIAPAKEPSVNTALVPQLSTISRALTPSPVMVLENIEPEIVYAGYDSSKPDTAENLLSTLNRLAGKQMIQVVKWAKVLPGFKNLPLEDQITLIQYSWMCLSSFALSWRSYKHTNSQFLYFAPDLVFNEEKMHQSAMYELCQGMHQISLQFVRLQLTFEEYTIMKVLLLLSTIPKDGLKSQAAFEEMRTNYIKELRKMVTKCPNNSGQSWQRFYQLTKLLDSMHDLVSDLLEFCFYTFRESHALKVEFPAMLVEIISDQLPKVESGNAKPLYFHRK
In words: human MR NH Pro assay (PathHunter Protein:Protein interaction assay), MR antagonist activity. Format: cell-based. The following applies: PathHunter CHO-K1 cells overexpressing human MR; aldosterone about 0.3 nM; 6 hours at 37° C.; luminescence; read-out: Primary Assay IP rating (IP = inflection point for a given dose-response titration curve). An outline of the steps:
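PathHunter enzyme-complementation assay in cells of full-length human MR recruitment of a coactivator peptide, run in antagonist mode against aldosterone at about 0.3 to 1.0 nM final. Compounds are in a 10-point, 1:3 series from a 4.4 mM top. Incubation is 6 h at 37° C, then detection reagent for 1 h at RT, with a luminescence read-out.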
As for `CCC(C(C)=O)(c1ccc(Cl)cc1)n1ccc2c(NS(C)(=O)=O)cc(F)cc21` (stereo not shown) [Compound 98, N-(1-(3-(4-chlorophenyl)-2-oxopentan-3-yl)-6-fluoro-1H-indol-4-yl)methanesulfonamide], the pIC50 was more than 7.00.

In the case of `CCC(C(C)=O)(c1ccc(Cl)cc1)n1ccc2c(NS(C)(=O)=O)cccc21` (stereo not shown) [Compound 99, N-(1-(3-(4-chlorophenyl)-2-oxopentan-3-yl)-1H-indol-4-yl)methanesulfonamide], the pIC50 was more than 7.00.

On to `CCC(C(C)=O)(c1ccc(Cl)cc1)n1ncc2c(NS(=O)(=O)NC)cccc21` (stereo not shown) [Compound 105], for which the pIC50 is more than 7.00. With `CCC(c1ccc(Cl)cc1Cl)(C(C)O)n1ccc2c(NS(C)(=O)=O)cccc21` (stereo not shown) [Compound 110, N-(1-(3-(2,4-dichlorophenyl)-2-hydroxypentan-3-yl)-1H-indol-4-yl)methanesulfonamide], the pIC50 was more than 7.00. For `CCC(c1ccc(Cl)cc1)(C(C)O)n1ncc2c(NS(=O)(=O)NC)cccc21` (stereo not shown) [Compound 118], the pIC50 was more than 7.00.

As to `CCC(c1ccc(Cl)cc1)(C(C)O)n1ncc2c(NS(=O)(=O)N(C)C)cccc21` (stereo not shown) [Compound 119, 3-(1-(3-(4-chlorophenyl)-2-hydroxypentan-3-yl)-1H-indazol-4-yl)-1,1-dimethyl-sulfonylurea], the pIC50 was more than 7.00. In the case of `CCC(c1ccc(Cl)cc1)(C1CC1C#N)n1ncc2c(NS(C)(=O)=O)cccc21` (stereo not shown) [Compound 120, N-(1-(1-(4-chlorophenyl)-1-(2-cyanocyclopropyl)propyl)-1H-indazol-4-yl)methanesulfonamide] it was more than 7.00. `CCC(CC#N)(c1ccc(C(F)(F)F)cc1)n1ccc2c(NS(C)(=O)=O)cccc21` (stereo not shown) [Compound 126, N-(1-(1-cyano-2-(4-(trifluoromethyl)phenyl)butan-2-yl)-1H-indol-4-yl)methanesulfonamide]: the pIC50 was more than 7.00. Take `CCC(/C=C/C#N)(c1ccc(Cl)cc1)n1ccc2c(NS(C)(=O)=O)cccc21` (stereo not shown) [Compound 127, (E)-N-(1-(3-(4-chlorophenyl)-1-cyanopent-1-en-3-yl)-1H-indol-4-yl)methanesulfonamide]: the pIC50 is more than 7.00. In the case of `CCC(/C=C/C#N)(c1ccc(OC)cc1)n1ccc2c(NS(C)(=O)=O)cccc21` (stereo not shown) [Compound 128, (E)-N-(1-(1-cyano-3-(4-methoxyphenyl)pent-1-en-3-yl)-1H-indol-4-yl)methanesulfonamide] it was more than 7.00; in that of `CCC(/C=C/C#N)(c1ccc(Cl)cc1)n1ncc2c(NS(C)(=O)=O)cccc21` (stereo not shown) [Compound 129, (E)-N-(1-(3-(4-chlorophenyl)-1-cyanopent-1-en-3-yl)-1H-indazol-4-yl)methanesulfonamide], more than 7.00; in that of `CCC(/C=C/C#N)(c1ccc(Cl)cc1)n1ncc2c(NS(C)(=O)=O)cc(F)cc21` (stereo not shown) [Compound 130, (E)-N-(1-(3-(4-chlorophenyl)-1-cyanopent-1-en-3-yl)-6-fluoro-1H-indazol-4-yl)methanesulfonamide], more than 7.00. On to `CCC(/C(C)=C/C#N)(c1ccc(Cl)cc1)n1ccc2c(NS(C)(=O)=O)cccc21` (stereo not shown) [Compound 132, N-(1-(3-(4-Chlorophenyl)-1-cyano-2-methylpent-1-en-3-yl)-1H-indol-4-yl)methanesulfonamide], for which the pIC50 was more than 7.00. Consider `CCC(/C=C/C#N)(c1ccc(Cl)cc1)n1ncc2c(N)cccc21` (stereo not shown) [Compound 133, (E)-4-(4-amino-1H-indazol-1-yl)-4-(4-chlorophenyl)hex-2-enenitrile], for which the pIC50 is 6.30 to 7.00. As for `CCC(/C=C/C#N)(c1ccc(Cl)cc1)n1ncc2c(N)cc(F)cc21` (stereo not shown) [Compound 134, (E)-4-(4-amino-6-fluoro-1H-indazol-1-yl)-4-(4-chlorophenyl)hex-2-enenitrile], the pIC50 is 6.30 to 7.00. Turning to `CCC(/C=C/C#N)(c1ccc(Cl)cc1)n1ncc2c(N(C(=O)OC(C)(C)C)S(C)(=O)=O)cccc21` (stereo not shown) [Compound 135, (E)-tert-butyl 1-(3-(4-chlorophenyl)-1-cyanopent-1-en-3-yl)-1H-indazol-4-yl(methylsulfonyl) carbamate], the pIC50 was more than 7.00.

With `CCC(/C=C/C#N)(c1ccc(Cl)cc1)n1ncc2c(N(S(C)(=O)=O)S(C)(=O)=O)cc(F)cc21` (stereo not shown) [Compound 136, (E)-N-(1-(3-(4-chlorophenyl)-1-cyanopent-1-en-3-yl)-6-fluoro-1H-indazol-4-yl)-N-(methylsulfonyl)methanesulfonamide], the pIC50 was more than 7.00. Regarding `CCC(CCC#N)(c1ccc(OC)cc1)n1ccc2c(NS(C)(=O)=O)cccc21` (stereo not shown) [Compound 139, N-(1-(1-cyano-3-(4-methoxyphenyl)pentan-3-yl)-1H-indol-4-yl)methanesulfonamide], the pIC50 was more than 7.00. With `CCC(CCC#N)(c1ccccc1)n1ncc2c(NS(C)(=O)=O)cc(F)cc21` (stereo not shown) [Compound 144, N-(1-(1-cyano-3-phenylpentan-3-yl)-6-fluoro-1H-indazol-4-yl)methanesulfonamide], the pIC50 is more than 7.00. With `CCC(CCC#N)(c1ccc(Cl)cc1)n1ncc2c(NS(C)(=O)=O)cc(F)cc21` (stereo not shown) [Compound 145, N-(1-(3-(4-chlorophenyl)-1-cyanopentan-3-yl)-6-fluoro-1H-indazol-4-yl)methanesulfonamide] the figure was more than 7.00; with `CCC(C1=C(C#N)CCO1)(c1ccc(Cl)cc1)n1ccc2c(NS(C)(=O)=O)cccc21` (stereo not shown) [Compound 147, N-(1-(1-(4-Chlorophenyl)-1-(3-cyano-4,5-dihydrofuran-2-yl)propyl)-1H-indol-4-yl)methane-sulfonamide], 6.30 to 7.00; with `CCC(C(=O)NCC#N)(c1ccc(Cl)cc1)n1ccc2c(NS(C)(=O)=O)cccc21` (stereo not shown) [Compound 149, 2-(4-chlorophenyl)-N-(cyanomethyl)-2-(4-(methylsulfonamido)-1H-indol-1-yl)butanamide], more than 7.00. Regarding `CCn1ncc(C(CC)(c2ccc(Cl)cc2)n2ccc3c(NS(C)(=O)=O)cccc32)n1` (stereo not shown) [Compound 152, N-(1-(1-(4-chlorophenyl)-1-(2-ethyl-2H-1,2,3-triazol-4-yl)propyl)-1H-indol-4-yl)methanesulfonamide], the pIC50 was more than 7.00.

On to `CCC(C(=O)OC)(c1ccc(Cl)cc1)n1ccc2c(CCS(C)(=O)=O)cccc21` (stereo not shown) [Compound 153, Methyl 2-(4-chlorophenyl)-2-(4-(2-(methylsulfonyl)ethyl)-1H-indol-1-yl)butanoate], for which the pIC50 is more than 7.00. Consider `CCC(c1ccc(Cl)cc1)(n1ccc2c(NS(C)(=O)=O)cccc21)C1(O)CC1` (stereo not shown) [Compound 154, N-(1-(1-(4-chlorophenyl)-1-(1-hydroxycyclopropyl)propyl)-1H-indol-4-yl)methanesulfonamide], for which the pIC50 is more than 7.00. In the case of `COC(=O)C(CCF)(c1ccc(Cl)cc1)n1ccc2c(NS(C)(=O)=O)cccc21` (stereo not shown) [Compound 156, methyl 2-(4-chlorophenyl)-4-fluoro-2-(4-(methylsulfonamido)-1H-indol-1-yl)butanoate], the pIC50 was more than 7.00. With `CCC(c1ccc(Cl)cc1)(c1nc(C(N)=O)no1)n1ncc2c(NS(C)(=O)=O)cccc21` (stereo not shown) [Compound 157, 5-(1-(4-chlorophenyl)-1-(4-(methylsulfonamido)-1H-indazol-1-yl)propyl)-1,2,4-oxadiazole-3-carboxamide] the figure was 6.30 to 7.00. As for `CCC(c1ccc(Cl)cc1)(c1nc(C#N)no1)n1ncc2c(NS(C)(=O)=O)cccc21` (stereo not shown) [Compound 158, N-(1-(1-(4-chlorophenyl)-1-(3-cyano-1,2,4-oxadiazol-5-yl)propyl)-1H-indazol-4-yl)methane sulfonamide], the pIC50 is more than 7.00. With `CCC(CC(F)(F)F)(c1ccc(Cl)cc1)n1ncc2c(NS(C)(=O)=O)cccc21` (stereo not shown) [Compound 159, N-(1-(3-(4-chlorophenyl)-1,1,1-trifluoropentan-3-yl)-1H-indazol-4-yl)methanesulfonamide] the figure was more than 7.00; with `CCC(CCOS(C)(=O)=O)(c1ccc(Cl)cc1)n1ccc2c(NS(C)(=O)=O)cccc21` (stereo not shown) [Compound 164, 3-(4-Chlorophenyl)-3-(4-(methylsulfonamido)-1H-indol-1-yl)pentyl methanesulfonate], more than 7.00; with `CCC(CCOC)(c1ccc(Cl)cc1)n1ccc2c(NS(C)(=O)=O)cccc21` (stereo not shown) [Compound 165, N-(1-(3-(4-Chlorophenyl)-1-methoxypentan-3-yl)-1H-indol-4-yl)methanesulfonamide], more than 7.00.

The record behind these values is patent US8933113B2 (Merck Sharp & Dohme Corp., priority 2011, dated 2015).
